What was measured:
[1] = tested on: Primary osteoblasts of mouse skulls; assay: Intermittent (4 h/48 h) PTH mimetic peptide stimulation, osteoblast differentiation (ALP, calcium nodules); format: cell-based
Protocol: Osteoblasts were isolated from the skulls of newborn mice and cultured in vitro. The cell at density of 1×10^5/well was inoculated in a 24-well culture plate. After 3 days, a 4 h/48 h intermittent PTH mimetic peptide stimulation experiment was started, which the PTH mimetic peptide was added to the culture system at the corresponding concentration (containing 10% serum+α-MEM Culture medium). After 4 hours, the culture solution was aspirated, the adherent cells were gently washed once with α-MEM medium, then 10% serum+α-MEM medium was added and continued culturing for 44 hours. Repeated this cycle. Concentration: MY-1 peptide 10^−6 M, PTH (1-34) peptide 10^−8 M, MY-3 peptide 10^−8 M.
Alkaline phosphatase staining was performed after 2 weeks, and calcium nodule staining was performed after 4 weeks (FIG. 1A, upper two rows of the holes). Alkaline phosphatase expression and calcium ion concentration of each well were quantitative detected (FIGS. 1B and 1C).
(§1) Primary osteoblasts (two rows of the holes in A) of mouse skulls were intermittently treated with PTH (1-34), MY-3 and MY-1. (within 48 hours, PTH peptide was added to the medium for 4 hours, removed, and cultured in the ordinary medium for 44 hours, then started all over again). At 2 weeks, alkaline phosphatase (ALP) staining (A) and quantification (B) wells were performed in the cell culture. 4 Weekly, calcium nodule staining (A) and calcium ion quantification (C) were performed in culture wells. Bone marrow cells in the femoral shaft bone marrow cavity (lower hole A) received the same treatment with three peptides mentioned above. Two weeks later, tartrate resistant acid phosphatase (TRAP) staining (A) and quantification (D) were performed. […] The same experiment was repeated three times, and same results were obtained. *P<0.05 vs control group (CON), #P<0.05 vs PTH (1-34).

[2] = clinical applications, in general; cited from earlier work
[3] = tested on: mouse bone marrow cells; assay: Realtime PCR gene expression after PTH peptide stimulation, bone marrow cells; format: cell-based; details: continuous stimulation of bone marrow cells (FIG. 3D)
Protocol: (§2) Primary mouse skull osteoblasts (FIGS. 3A and 3B) and mouse bone marrow cells (FIGS. 3C and 3D) were cultured in cell culture plates. When the cells completely cover the bottom of the culture well, changed to a medium containing 1% fetal bovine serum, added with different concentrations of PTH mimetic peptide (the concentration is the same as above). Cells receiving intermittent stimulation (FIG. 3A and FIG. 3C) were treated with PTH peptides for 4 hours, and normal medium for 44 hours. Such 48-hour cycle repeated three times.
(§3) Cell RNA was extracted 4 hours after the last PTH peptide stimulation for Realtime PCR detection. Cells receiving continuous stimulation (FIG. 3B and FIG. 3D) were cultured in the medium with PTH peptides, and the culture medium containing peptides was changed 48 hours later. Repeated such cycle three times. After 48 hours of the last PTH peptide stimulation, cellular RNA was extracted for Realtime PCR detection. As shown in the figure, the average value and standard deviation of an independent experiment (triple holes) were obtained. The same experiment was repeated three times and same results were obtained. *P<0.05 vs control group (CON), #P<0.05 vs PTH (1-34).

[4] = tested on: Bone marrow cells from the bone marrow cavity of femur in 7-week-old mice; assay: Continuous PTH mimetic peptide stimulation, osteoclast formation (TRAP); format: cell-based, mouse
Protocol: Bone marrow cells from the bone marrow cavity of femur in 7-week-old mice were extracted and seeded in 24-well plates at a density of 1×10^5/well. The 48 h continuous PTH mimetic peptide stimulation experiment was carried out as described above. After 7 days, tartrate resistant acid phosphatase (TRAP) staining (bottom row of holes in FIG. 2A) and quantification were performed (FIG. 2D).
(§4) Primary osteoblasts (two rows of the holes in A) of mouse skulls were continuously treated with PTH (1-34), MY-3 and MY-1 (within the 48-hour culture cycles, PTH peptide stayed in the culture medium at all times). After 2 weeks, alkaline phosphatase (ALP) staining (A) and quantification (B) wells were performed in the cell culture. After 4 Weeks, calcium nodule staining (A) and calcium ion quantification (C) were performed in culture wells. Bone marrow cells in the femoral shaft bone marrow cavity (lower hole A) received the same treatment with three peptides as described above. Two weeks later, tartrate resistant acid phosphatase (TRAP) staining (A) and quantification (D) were performed. […] The same experiment was repeated three times and same results were obtained. […], #P<0.05 vs PTH (1-34).

[5] = tested on: Bone marrow cells from the bone marrow cavity of 7-week-old mice; assay: Intermittent (4 h/48 h) PTH mimetic peptide stimulation, osteoclast formation (TRAP); format: cell-based, mouse
Protocol: Bone marrow cells from the bone marrow cavity of 7-week-old mice were extracted and cultured in 24-well plates at a density of 1×10^5/well. The 4 h/48 h intermittent PTH mimetic peptide stimulation experiment was carried out as described above. After 7 days, tartrate resistant acid phosphatase (TRAP) staining (bottom row of the holes in FIG. 1A) and quantification were performed (FIG. 1D).
as §1

[6] = tested on: Primary osteoblasts of mouse skulls; assay: Continuous PTH mimetic peptide stimulation, osteoblast differentiation (ALP, calcium nodules); format: cell-based
Protocol: Osteoblasts were isolated from the skulls of newborn mice and cultured in vitro. The cell at density of 1×10^5/well was inoculated in the 24-well culture plate. After 3 days, the continuous PTH mimetic peptide stimulation experiment was started. The PTH mimetic peptide was added to the culture system (containing 10% serum+α-MEM medium) at the corresponding concentration. After 48 hours, when the medium is changed, the PTH mimetic peptide was added again, meaning the PTH mimetic peptide is always in the culture solution. Concentration: MY-1 peptide 10^−6 M, PTH (1-34) peptide 10^−8 M, MY-3 peptide 10^−8 M. Alkaline phosphatase staining was performed 2 weeks later, and calcium nodule staining was performed 4 weeks later (FIG. 2A, upper two rows of the holes). The expression of alkaline phosphatase and the concentration of calcium ion in each well were quantitatively detected (FIGS. 2B and 2C).
as §4

[7] = tested on: Primary mouse skull osteoblasts; assay: Realtime PCR gene expression after PTH peptide stimulation, osteoblasts; format: cell-based; details: intermittent stimulation
Protocol: as §2, §3

[8] = tested on: C57BL female mice; assay: Ovariectomy osteoporosis model, tibia histology (paraffin section); format: in vivo, mouse; details: OVX mice, 2 and 4 weeks, compared with the control group; MY-1 400, PTH (1-34) and MY-3 40 μg/kg/day
Protocol: An osteoporosis model was constructed by removing the ovaries of 7-week-old C57BL female mice. Mice were subcutaneously injected with PTH (3-34) (400 μg/kg/day), MY-1 peptide (400 μg/kg/day), PTH (1-34) (40 μg/kg/day) and MY-3 peptide (40 μg/kg/day) daily (5 days a week), respectively. Mice were sacrificed at 2 and 4 weeks and their tibias were separated, then the cancellous bone mass (BV/TV) and bone mineral density (BMD) of the tibias were measured by micro-CT (FIG. 4).
MY-3 has a stronger anti-bone loss effect than PTH (1-34)-through histological studies. The preparation of the osteoporosis animal model and the administration method of the PTH mimetic peptide was the same as in Example 4. After 2 and 4 weeks, the tibias of experimental mice were removed, decalcified, and prepared for paraffin section. At last, the osteoclast was stained.

## CC[C@H](C)[C@H](NC(=O)[C@H](CCC(=O)O)NC(=O)[C@H](CO)NC(=O)[C@@H](NC(=O)[C@@H](N)CO)C(C)C)C(=O)N[C@@H](CCC(N)=O)C(=O)N[C@@H](CC(C)C)C(=O)N[C@@H](CCSC)C(=O)N[C@@H](Cc1cnc[nH]1)C(=O)N[C@@H](CC(N)=O)C(=O)N[C@@H](CC(C)C)C(=O)NCC(=O)N[C@@H](CCCCN)C(=O)N[C@@H](Cc1cnc[nH]1)C(=O)N[C@@H](CC(C)C)C(=O)N[C@@H](CC(N)=O)C(=O)N[C@@H](CO)C(=O)N[C@@H](CCSC)C(=O)N[C@@H](CCC(=O)O)C(=O)N[C@@H](CCCN=C(N)N)C(=O)N[C@H](C(=O)N[C@@H](CCC(=O)O)C(=O)N[C@@H](Cc1c[nH]c2ccccc12)C(=O)N[C@@H](CC(C)C)C(=O)N[C@@H](CCCN=C(N)N)C(=O)N[C@@H](CCCCN)C(=O)N[C@@H](CCCCN)C(=O)N[C@@H](CC(C)C)C(=O)N[C@@H](CCC(N)=O)C(=O)N[C@@H](CC(=O)O)C(=O)N[C@H](C(=O)N[C@@H](Cc1cnc[nH]1)C(=O)N[C@@H](CC(N)=O)C(=O)N[C@@H](Cc1ccccc1)C(=O)O)C(C)C)C(C)C [PTH (1-34), Teriparatide, reference compound]
[1]; intermittent 4 h/48 h stimulation, 2 weeks, MY-1 10^−6 M, PTH (1-34) 10^−8 M, MY-3 10^−8 M, mean ± SD
  ALP: 4.91 ± 0.55 U/g protein
[1]; intermittent 4 h/48 h stimulation, 4 weeks, MY-1 10^−6 M, PTH (1-34) 10^−8 M, MY-3 10^−8 M, mean ± SD
  Calcium: 0.49 ± .06 mmole/g protein
[1]; intermittent stimulation
  osteogenic differentiation of osteoblasts (in words): can promote osteogenic differentiation of osteoblasts
[2]
  reduction of the incidence of vertebral fractures: about 76%
[3]
  RANKL expression (in words): significantly promoted RANKL expression
  expression of ALP and OC (in words): inhibited the expression of ALP and OC
[4]; TRAP staining
  osteoclast formation (in words): the same effect on promoting osteoclast formation
[4]; after 7 days, MY-1 10^−6 M, PTH (1-34) 10^−8 M, MY-3 10^−8 M, mean ± SD
  TRAP: 11.80 ± 1.99 U/g protein
[5]; intermittent 4 h/48 h stimulation, after 7 days, MY-1 10^−6 M, PTH (1-34) 10^−8 M, MY-3 10^−8 M, mean ± SD
  TRAP: 9.61 ± 1.78 U/g protein
[5]; intermittent stimulation, TRAP staining
  osteoclast formation (in words): the same effect of promoting osteoclast formation
[6]
  osteogenic differentiation of osteoblasts (in words): inhibit the differentiation of osteoblasts
[6]; 2 weeks, MY-1 10^−6 M, PTH (1-34) 10^−8 M, MY-3 10^−8 M, mean ± SD
  ALP: 1.02 ± 0.28 U/g protein
[6]; 4 weeks, MY-1 10^−6 M, PTH (1-34) 10^−8 M, MY-3 10^−8 M, mean ± SD
  Calcium: 0.12 ± 0.03 mmole/g protein
[7]
  expression of osteogenic marker gene ALP and OC (in words): promote the expression of osteogenic marker gene ALP and OC
[8]
  number of trabecular bones (in words): increased

Source: patent US12410229B2, “PTH mimetic peptide based on protein domain reconstruction and application thereof” (priority 2018, dated 2025)
